Laboratory results reported in paper PMC3039689, “Identification of Small Molecule Lead Compounds for Visceral Leishmaniasis Using a Novel Ex Vivo Splenic Explant Model System” (PLoS Neglected Tropical Diseases, 2011).
Counter-ions that a name gives are not always drawn. Like-named read-outs stand apart in the source and are kept apart here.

Legend:
[1] = target: luciferase-transfected Leishmania donovani; experiment: Anti-leishmanial efficacy (EC50) in the ex vivo splenic explant model; type: cell-based
Protocol: To establish the plate assay for drug screening, the spleens from 2 infected hamsters were aseptically removed and placed in a Petri dish containing 5 mL of Collagenase D (Roche) at 2 mg/mL of buffer (10 mM Hepes pH 7.4, 150 mM NaCl, 5 mM KCl, 1 mM MgCl2, 1.8 mM CaCl2). The spleen was infiltrated by injection with approximately 2 mL of Collagenase solution, the tissue was cut into small pieces using sharp scissors, and incubated for 20 minutes at 37°C. The cell suspension and remaining tissue fragments were gently passed through a 100 µm cell strainer (B–D) to obtain a single cell suspension, which was washed twice by centrifugation (500 g for 7 min at 4°C) and re-suspended in culture medium composed of DMEM (Gibco), 5% FBS, 1 mM Sodium pyruvate (Gibco), 1X MEM amino acids solution (Sigma), 0.02% v/v/EDTA, 10 mM HEPES buffer (Cellgro) and 100 IU/mL Penicillin/100 […] Streptomycin solution (Cellgro).
The anti-leishmanial efficacy of the compounds was determined using the splenic explant model in a 96-well plate format. […] Because variation in the parasite burden between different explant cultures was expected, the concentration of cells used in each experiment was adjusted to give approximately 100 counts by luminometry (equivalent to ∼240,000 parasites). The number of surviving parasites was determined by luminometry as described above.

HepG2 cells = experiment: Cell toxicity (CC50) in the HepG2 cell line, CellTiter-Glo; type: cell-based, human
Protocol: (§1) After 24 hours of culture at 37°C the number of viable cells was determined by quantification of the ATP present in the cell using the CellTiter-Glo luminescent Cell Viability Assay (Promega).

[2] = as above; type: cell-based, human; conditions: human
Protocol: as §1

[3] = ex vivo splenic explant, 48 h, luminometry, at least two experiments, compound from screened library, read-out: Ex vivo model EC50 Mean
[4] = HepG2 cell line, 24 h, ATP luminescence, compound from screened library, read-out: HepG2 CC50 Mean
[5] = 50% reduction in parasite counts in the ex vivo model, read-out: EC50 Mean (Table S2)
[6] = Leishmania donovani, ex vivo splenic explant, 48 h, luminometry, at least two experiments, compound from screened library, read-out: Ex vivo model EC50 Mean
[7] = Leishmania donovani, 48 h, ex vivo splenic explant, 48 h, luminometry, at least two experiments, compound from screened library, read-out: Ex vivo model EC50 Mean
[8] = Leishmania donovani, 50% reduction in parasite counts in the ex vivo model, read-out: EC50 Mean (Table S2)
[9] = HepG2 cells, HepG2 cell line, 24 h, ATP luminescence, compound from screened library, read-out: HepG2 CC50 Mean

CC(C)=CC(=O)O[C@H]1[C@H]2[C@H](OC(=O)[C@H]2C)[C@H](O)[C@@H](C)[C@@H]2C=CC(=O)[C@]21C [Fastigilin B]
EC50 [1, 3]: 8.9 µM | CC50 (HepG2 cells; [4]): 44.8 µM

7-(2-(6-Ethoxy-1-methyl-1.lambda.~5~-quinolin-2-yl)vinyl)-5-methyl-8-quinolinol; Quinolinium, {6-ethoxy-2-[2-(8-hydroxy-5-methyl-7-quinolyl)vinyl]-1-methyl-} iodide
EC50 [1, 3]: 5.7 µM | CC50 (HepG2 cells; [4]): 46 µM

CC1CC(C)(O)CC(C(O)CC2CC(=O)NC(=O)C2)C1=O (stereo not drawn) [Streptovitacin A]
EC50 [1, 3]: 3.7 µM | CC50 (HepG2 cells; [4]): 32.4 µM

O=c1c2ccccc2sc2c(CO)ccc(NCCN3CCCCC3)c12 [Thioxanthen-9-one, 4-(hydroxymethyl)-1-[(2-piperidinoethyl)amino]-; 9H-Thioxanthen-9-one, 4-(hydroxymethyl)-1-[[2-(1-piperidinyl)ethyl]amino]-]
EC50 [1, 3]: 9.1 µM | CC50 (HepG2 cells; [4]): 56 µM

CC[C@@H](C(=O)[C@@H](C)[C@@H](O)[C@H](C)[C@@H]1O[C@@H]([C@@H](CC)C(=O)O)CC[C@@H]1C)[C@H]1O[C@]2(C=C[C@@H](O)[C@]3(CC[C@@](C)([C@H]4CC[C@](O)(CC)[C@H](C)O4)O3)O2)[C@H](C)C[C@@H]1C [Salinomycin, Sodium]
EC50 [1, 5]: 7.44 µM | EC50 [1, 3]: 7.4 µM | CC50 (HepG2 cells; [4]): 48.4 µM

COc1ccc2c(=O)oc3c(OC)cc(CCN(C)C)c4c(=O)oc1c2c34 [Thaspine Acetate]
EC50 [1, 3]: 2.7 µM | CC50 (HepG2 cells; [4]): 51.4 µM

Cc1cc(C(C)(C)CC(C)(C)C)ccc1OCCOCC[N+](C)(C)Cc1ccccc1 [Methylbenzethonium Chloride]
EC50 [1, 5]: 7.06 µM | EC50 [1, 3]: 7.1 µM | CC50 (HepG2 cells): 53.2 µM

CCN(CC)COC(=S)S [Diethylaminomethoxymethanedithioic acid]
EC50 [1, 3]: 3.7 µM | CC50 (HepG2 cells; [4]): 83.7 µM

CCN(CC)CC(O)c1ccc2ccc3ccccc3c2c1 (stereo not drawn) [3-Phenanthrenemethanol, α-[ (diethylamino)methyl]-, hydrochloride]
EC50 [1, 3]: 8.9 µM | CC50 (HepG2 cells; [4]): 54.2 µM

c1ccc2c(c1)Sc1ccccc1N2CC1CN2CCC1CC2 (stereo not drawn) [Mequitazine,10-(3-Quinuclidinylmethyl)phenothiazine]
EC50 [1, 3]: 8.5 µM | CC50 (HepG2 cells; [4]): 50.3 µM

O=[As](O)(O)c1ccc(Cc2ccc([As](=O)(O)O)cc2)cc1 [4-[(4-arsonophenyl)methyl]phenyl]arsonic acid]
EC50 [1, 3]: 6.9 µM | CC50 (HepG2 cells; [4]): 34.5 µM

C=C1C(=O)[C@]23[C@H](O)[C@H]1CC[C@H]2[C@@]12CO[C@]3(O)[C@@H](O)[C@@H]1C(C)(C)CC[C@@H]2O [Rubescensin A]
EC50 [1, 3]: 11 µM | CC50 (HepG2 cells): 69.1 µM

CSc1ccc2c(c1)N(CCCN(C)C)c1ccccc1S2 [Thiomethylpromazine]
EC50 [1, 3]: 13 µM | CC50 (HepG2 cells; [4]): 83.9 µM

CC[C@@H](C(=O)[C@@H](C)[C@@H](O)[C@H](C)CCc1ccc(C)c(O)c1C(=O)O)[C@H]1O[C@](CC)([C@H]2CC[C@](O)(CC)[C@H](C)O2)C[C@@H]1C [Lasalocid Sodium]
EC50 [1, 3]: 8.9 µM | CC50 (HepG2 cells; [4]): 45.8 µM

OC(c1cc(-c2ccc(Cl)cc2)nc2ccccc12)C1CCCCN1 (stereo not drawn) [2-(4-chlorophenyl)quinolin-4-yl]-(2-piperidyl)methanol]
EC50 [1, 3]: 6.7 µM | CC50 (HepG2 cells; [4]): 38.4 µM

CC(C)c1ccc2c(c1)CC[C@H]1[C@](C)(CN)CCC[C@]21C [Dehydroabietylamine]
EC50 [1, 3]: 5.8 µM | CC50 (HepG2 cells): 32.9 µM

CN(C)CCCN1c2ccccc2Sc2ccc3ccccc3c21 [3-(12H-benzo[a]phenothiazin-12-yl)-N,N-dimethyl-1-propanamine]
EC50 [1, 6]: 11.5 µM | CC50 [2, 4]: 66.6 µM

O=C1C=C2C=C[C@H]3C[C@]2(O1)[C@@H]1CCCCN13 [Virosecurinine]
EC50 [1, 3]: 8.8 µM | CC50 (HepG2 cells; [4]): 121 µM

C=C1C(=O)O[C@H]2[C@H]1CC/C(C)=C/CC[C@@]1(C)O[C@@H]21 [Parthenolide]
EC50 [1, 7]: 13.3 µM | EC50 [1, 8]: 13.3 µM | CC50 at 24 h [2, 9]: 81.1 µM

COc1ccc2cc1Oc1ccc(cc1)C[C@H]1c3c(cc4c(c3Oc3cc5c(cc3OC)CCN(C)[C@@H]5C2)OCO4)CCN1C [Cepharanthine]
EC50 [1, 7]: 11.4 µM | CC50 at 24 h [2]: 86.3 µM

N=C1C=CC(=C(c2ccc(N)cc2)c2ccc(N)cc2)C=C1 [Pararosaniline Pamoate]
EC50 [1, 6]: 2.7 µM | CC50 at 24 h [2]: 37.1 µM

OC(c1cc(-c2ccccc2)nc2c1ccc1ccccc12)C1CCCCN1 (stereo not drawn) [2-phenylbenzo[h]quinolin-4-yl)(2-piperidinyl)me]
EC50 [1, 3]: 5 µM | CC50 (HepG2 cells; [4]): 28.7 µM

C=C1C(=O)O[C@H]2C[C@@H]1C(OC(C)=O)C/C(C)=C/CC/C(C)=C/CC[C@@]2(C)O (stereo partly drawn) [Crassin Acetate]
EC50 [1, 7]: 7.7 µM | CC50 at 24 h [2, 9]: 41.1 µM

COc1cc(O)c(C(=O)/C=C/c2ccc(O)c(OC)c2)c(OC)c1 [2',4-dihydroxy-3,4',6'-trimethoxychalcone]
EC50 [1, 7]: 14.6 µM | CC50 at 24 h [2, 9]: 106 µM

CCC1=C(CC2NCCc3cc(OC)c(OC)cc32)CC2c3ccccc3CCN2C1 (stereo not drawn) [2-[(6,7-dimethoxy-1,2,3,4-tetrahydroisoquinolin-1-yl)methyl]-3-ethyl-4,6,7,11b-tetrahydro-1H-pyrido[2,1-a]isoquinoline]
EC50 [1, 3]: 8.8 µM | CC50 (HepG2 cells; [4]): 76.2 µM

CC(C)[C@@H]1NC(=O)[C@H](C)OC(=O)[C@@H](C(C)C)NC(=O)[C@@H](C(C)C)OC(=O)[C@H](C(C)C)NC(=O)[C@H](C)OC(=O)[C@@H](C(C)C)NC(=O)[C@@H](C(C)C)OC(=O)[C@H](C(C)C)NC(=O)[C@H](C)OC(=O)[C@@H](C(C)C)NC(=O)[C@@H](C(C)C)OC1=O [Valinomycin]
EC50 [1, 6]: 0.02 µM | CC50 at 24 h [2, 4]: 10.7 µM

Cc1cc(O)ccc1Cl [Chlorocresol]
EC50 [1, 8]: 8.02 µM | EC50 [1, 6]: 8 µM | CC50 at 24 h [2, 9]: 138 µM

CC[n+]1c(-c2ccccc2)c2cc(N)ccc2c2ccc(N)cc21 [Homidium Bromide]
EC50 [1, 8]: 11.9 µM | EC50 [1, 6]: 11.9 µM | CC50 [2, 4]: 58.8 µM

C[C@@H]1CC[C@@]2(OC1)O[C@H]1[C@@H](O)[C@H]3[C@@H]4CC[C@H]5C[C@@H](O[C@@H]6O[C@H](CO)[C@H](O[C@@H]7O[C@H](CO)[C@@H](O)[C@H](O[C@@H]8OC[C@@H](O)[C@H](O)[C@H]8O)[C@H]7O[C@@H]7O[C@H](CO)[C@H](O)[C@H](O[C@@H]8O[C@H](CO)[C@@H](O)[C@H](O)[C@H]8O)[C@H]7O)[C@H](O)[C@H]6O)[C@H](O)C[C@]5(C)[C@H]4CC[C@]3(C)[C@H]1[C@@H]2C [Digitonin]
EC50 [1, 7]: 8.2 µM | CC50 [2, 4]: 42.4 µM

Clc1ccc2c(NC3CCC(N4CCCCC4)CC3)ccnc2c1 (stereo not drawn) [7-chloro-N-(4-(1-piperidinyl)cyclohexyl)-4-quinolinamine]
EC50 [1, 7]: 6.3 µM | CC50 at 24 h [2, 9]: 67.4 µM

CN(C)CCCNc1c2c(=O)n(C)c(=O)nc-2n(C)c2ccccc12 [Pyrimido[4,5-b]quinoline-2,4(3H,10H)-dione, 5-[[3-(dimethylamino)propyl]amino]-3,10-dimethyl-, monohydrochloride]
EC50 [1, 7]: 6.5 µM | CC50 at 24 h [2, 9]: 49.5 µM

Cc1nccc2c1[nH]c1cc(O)ccc12 [Harmol Hydrochloride]
EC50 [1, 6]: 11.2 µM | CC50 [2, 4]: 60.2 µM

C[C@@H]1C[C@H]2CC[C@H](O2)[C@H](C)C(=O)O[C@@H](C)C[C@@H]2CC[C@@H](O2)[C@@H](C)C(=O)O[C@H](C)C[C@H]2CC[C@H](O2)[C@H](C)C(=O)O[C@@H](C)C[C@@H]2CC[C@@H](O2)[C@@H](C)C(=O)O1 [Nonactin]
EC50 [1, 6]: 0.1 µM | CC50 [2]: 23.7 µM

Cc1c2ccncc2c(C)c2c1[nH]c1ccccc12 [Ellipticine]
EC50 [1, 7]: 2.4 µM | CC50 [2]: 30.7 µM

O=C1C=C2C=C[C@@H]3C[C@@]2(O1)[C@H]1CCCCN31 [Securinine]
EC50 [1, 6]: 6.2 µM | CC50 [2, 4]: 47.7 µM
